≈ marks a conversion by molar mass, not a printed value.
How the values were obtained:
Format in all cases: cell-based
[1] = system: mixed culture of slime-forming bacteria; assay: Bactericidal test on a mixed culture of slime-forming bacteria in saline; conditions: 30 ppm, start 10^7 organisms/ml in saline
Description: A mixed culture of slime-forming bacteria including Pseudomonas aeruginosa, Enterobacter aerogenes, Escherichia coli, Proteus vulgaris, Bacillus mycoides and Staphylococcus aureus in saline containing 10^7 organisms/ml was treated with 30 ppm of the product of Example 2.

Tribonema aequale = assay: Test demonstrating algistatic activity; conditions: 504 h, 3 week incubation, shaking water bath, read-out: Minimum inhibitory Concentration, MIC
Description: (§1) The organisms against which the compounds are to be tested are grown in an Erlenmeyer flask in a nutrient medium under sterile conditions on a shaking water bath at 18° C. with exposure (14 hours in light alternating with 10 hours in the dark).
(§2) Tests are carried out against three algae, namely the blue algae
and the algae with brown chromatophors
(c) the widespread, unbranched filament-forming Tribonema aequale (C) occurring in bodies of water especially in the spring at low temperature or in the autumn, even in mild winters.
(§3) The composition of the medium is as follows (according to Algae broth, Difco Laboratories):
(§4) dissolved in 1 liter of distilled water. The nutrient medium treated with the biocide is innoculated with the respective algae suspension such that a final dilution of 1/100 (algae divided with a stirrer) is attained. Evaluation is made after a 3 week incubation in the Erlenmeyer flask on a shaking water bath.

Ulothrix subtilissima = assay: Test demonstrating algistatic activity; conditions: Klebsormidium subtilissimum, 504 h, 3 week incubation, shaking water bath, read-out: Minimum inhibitory Concentration, MIC
Description: as §1, §2
(b) the simple filament-forming Ulothrix subtilissima (B) generally found at colder times of the year in rapidly flowing water;
as §3, §4

Phormidium foveolarum = assay: Test demonstrating algistatic activity; conditions: Nodosilinea foveolarum, 504 h, 3 week incubation, shaking water bath, read-out: Minimum inhibitory Concentration, MIC
Description: as §1, §2
(a) Phormidium foveolarum (A) which lives in polluted water or moist earth and forms trichomes;
as §3, §4

O=C1CC(Cl)(CC(Cl)(Cl)Cl)O1 (centres unmarked) [Example 2, 4-chloro-4-(2,2,2-trichloroethyl)oxetan-2-one]
number of organisms reduced to ([1]; after one hour): 10^2 organisms/ml | killing of bacteria ([1]; within 24 hours): all the bacteria had been killed | MIC (Tribonema aequale): 30 µg/mL (≈ 126 µM) | MIC (Ulothrix subtilissima): 30 µg/mL (≈ 126 µM) | MIC (Phormidium foveolarum): 30 µg/mL (≈ 126 µM)
